Source: patent US20230139171A1 (SITA Information Networking Computing UK Limited, priority 2019, published 2023)
pIC50: −log10 of the molar value.

What was measured:
Format in all cases: cell-based
human TLR7 = target: T1, human TLR7 (Homo sapiens, UniProt Q9NYK1); experiment: TLR7 inhibition reporter assay (HEK-Blue cells, SEAP reporter, gardiquimod stimulation); conditions: HEK-Blue cells overexpressing human TLR7, SEAP reporter, gardiquimod 7.5 μM; read-out: TLR7 IC50
T1 construct: host or cells: HEK-Blue cells
T1 sequence (Q9NYK1 27-1049): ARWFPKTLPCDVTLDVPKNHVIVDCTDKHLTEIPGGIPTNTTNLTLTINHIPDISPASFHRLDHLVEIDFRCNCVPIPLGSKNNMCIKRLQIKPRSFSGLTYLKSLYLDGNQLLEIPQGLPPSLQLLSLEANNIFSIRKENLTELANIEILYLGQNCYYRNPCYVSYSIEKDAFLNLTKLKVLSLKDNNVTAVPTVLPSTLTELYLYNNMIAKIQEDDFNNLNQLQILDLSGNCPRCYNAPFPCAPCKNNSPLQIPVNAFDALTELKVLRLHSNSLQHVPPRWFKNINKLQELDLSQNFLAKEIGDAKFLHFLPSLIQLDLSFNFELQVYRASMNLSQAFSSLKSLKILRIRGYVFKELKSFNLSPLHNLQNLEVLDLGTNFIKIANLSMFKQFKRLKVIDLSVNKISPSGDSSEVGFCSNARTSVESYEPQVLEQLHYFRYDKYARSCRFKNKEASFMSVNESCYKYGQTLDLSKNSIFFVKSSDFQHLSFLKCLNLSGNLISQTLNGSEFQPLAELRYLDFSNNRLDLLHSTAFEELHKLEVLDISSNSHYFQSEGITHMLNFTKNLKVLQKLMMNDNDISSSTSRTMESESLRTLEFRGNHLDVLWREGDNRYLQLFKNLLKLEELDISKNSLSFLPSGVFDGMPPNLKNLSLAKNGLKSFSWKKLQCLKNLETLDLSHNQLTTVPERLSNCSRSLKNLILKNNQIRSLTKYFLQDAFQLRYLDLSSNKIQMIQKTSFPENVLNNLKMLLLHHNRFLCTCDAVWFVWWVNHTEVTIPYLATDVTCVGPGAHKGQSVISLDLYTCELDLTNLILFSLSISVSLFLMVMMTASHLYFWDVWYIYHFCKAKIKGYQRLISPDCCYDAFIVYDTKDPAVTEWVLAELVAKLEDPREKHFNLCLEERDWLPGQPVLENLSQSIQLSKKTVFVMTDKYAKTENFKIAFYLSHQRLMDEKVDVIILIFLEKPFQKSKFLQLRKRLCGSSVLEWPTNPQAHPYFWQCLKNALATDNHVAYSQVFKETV
In short: (§1)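 Human TLR7/8/9 HEK-Blue reporter lines; dose range 0.05 nM–50 μM; 30 min RT preincubation; stimulus gardiquimod 7.5 μM / R848 15.9 μM / ODN2006 5 nM respectively; 22 h, 37 °C; SEAP detected colorimetrically.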

human TLR9 = target: T2, human TLR9 (Homo sapiens, UniProt Q9NR96); experiment: TLR9 inhibition reporter assay (HEK-Blue cells, SEAP reporter, ODN2006 stimulation); conditions: HEK-Blue cells overexpressing human TLR9, SEAP reporter, ODN2006 5 nM
T2 construct: host or cells: HEK-Blue cells
T2 sequence (Q9NR96 26-1032): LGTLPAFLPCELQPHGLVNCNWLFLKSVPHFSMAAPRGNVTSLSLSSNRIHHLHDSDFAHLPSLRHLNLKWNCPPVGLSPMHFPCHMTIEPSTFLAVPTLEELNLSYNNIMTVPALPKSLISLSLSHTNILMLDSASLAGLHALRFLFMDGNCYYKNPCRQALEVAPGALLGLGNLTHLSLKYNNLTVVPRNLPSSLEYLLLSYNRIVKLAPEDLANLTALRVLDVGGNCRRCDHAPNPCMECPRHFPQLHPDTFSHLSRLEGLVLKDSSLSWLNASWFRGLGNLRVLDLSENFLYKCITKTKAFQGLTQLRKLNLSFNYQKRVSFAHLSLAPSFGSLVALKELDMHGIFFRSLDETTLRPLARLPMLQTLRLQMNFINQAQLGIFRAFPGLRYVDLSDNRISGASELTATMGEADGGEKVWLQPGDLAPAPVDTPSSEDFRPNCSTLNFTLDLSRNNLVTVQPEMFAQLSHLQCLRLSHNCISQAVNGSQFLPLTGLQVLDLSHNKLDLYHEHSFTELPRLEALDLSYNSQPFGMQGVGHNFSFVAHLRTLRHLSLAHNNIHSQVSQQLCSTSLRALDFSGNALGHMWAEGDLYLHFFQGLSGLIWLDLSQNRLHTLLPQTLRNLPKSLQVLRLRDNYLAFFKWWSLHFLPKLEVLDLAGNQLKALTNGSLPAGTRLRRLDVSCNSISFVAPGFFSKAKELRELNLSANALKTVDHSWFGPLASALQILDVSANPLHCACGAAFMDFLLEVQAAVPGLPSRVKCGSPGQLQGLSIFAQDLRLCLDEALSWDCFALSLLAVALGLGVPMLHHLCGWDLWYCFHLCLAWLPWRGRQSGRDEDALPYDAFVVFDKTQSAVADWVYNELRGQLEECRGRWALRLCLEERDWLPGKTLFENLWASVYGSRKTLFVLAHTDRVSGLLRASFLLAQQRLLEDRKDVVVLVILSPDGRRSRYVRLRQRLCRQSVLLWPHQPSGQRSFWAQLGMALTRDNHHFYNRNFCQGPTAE
In short: as §1

human TLR8 = target: T3, human TLR8 (Homo sapiens, UniProt Q9NR97); experiment: TLR8 inhibition reporter assay (HEK-Blue cells, SEAP reporter, R848 stimulation); conditions: HEK-Blue cells overexpressing human TLR8, SEAP reporter, R848 15.9 μM; read-out: TLR8 IC50
T3 construct: host or cells: HEK-Blue cells
T3 sequence (Q9NR97 27-1041): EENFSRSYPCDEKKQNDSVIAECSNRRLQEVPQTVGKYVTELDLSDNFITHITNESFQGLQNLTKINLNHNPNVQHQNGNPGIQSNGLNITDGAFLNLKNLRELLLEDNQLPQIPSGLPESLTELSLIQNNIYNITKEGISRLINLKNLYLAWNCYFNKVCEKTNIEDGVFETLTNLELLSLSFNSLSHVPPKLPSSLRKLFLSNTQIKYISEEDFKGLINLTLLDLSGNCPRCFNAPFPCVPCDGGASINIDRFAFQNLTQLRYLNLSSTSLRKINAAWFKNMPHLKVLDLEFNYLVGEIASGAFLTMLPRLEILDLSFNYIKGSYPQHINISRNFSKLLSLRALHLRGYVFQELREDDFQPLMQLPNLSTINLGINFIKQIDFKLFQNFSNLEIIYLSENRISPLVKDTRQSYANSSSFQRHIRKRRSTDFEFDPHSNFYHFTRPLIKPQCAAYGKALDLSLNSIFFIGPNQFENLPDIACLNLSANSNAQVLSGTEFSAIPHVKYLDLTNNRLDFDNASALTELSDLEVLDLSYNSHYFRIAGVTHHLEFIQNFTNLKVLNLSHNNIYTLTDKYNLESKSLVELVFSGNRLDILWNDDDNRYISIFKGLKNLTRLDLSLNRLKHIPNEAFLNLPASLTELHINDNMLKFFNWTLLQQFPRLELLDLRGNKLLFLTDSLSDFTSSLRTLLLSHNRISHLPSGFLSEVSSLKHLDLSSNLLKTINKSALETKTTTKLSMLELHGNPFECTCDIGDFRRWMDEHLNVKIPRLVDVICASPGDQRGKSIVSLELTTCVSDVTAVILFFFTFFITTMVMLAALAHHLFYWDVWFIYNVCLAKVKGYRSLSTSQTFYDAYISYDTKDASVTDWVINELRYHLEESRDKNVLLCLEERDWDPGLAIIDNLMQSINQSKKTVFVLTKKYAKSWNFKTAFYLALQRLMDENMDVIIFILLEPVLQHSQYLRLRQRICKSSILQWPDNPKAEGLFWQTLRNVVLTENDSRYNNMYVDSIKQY
In short: as §1

pIC50 (human TLR7)	pIC50 (human TLR9)	pIC50 (human TLR8)	SMILES
8.82	4.75	9.20	Cc1c(-c2[nH]c3sc(C4CCC(NCC(=O)N(C)C)CC4)nc3c2C(C)C)cn2ncnc2c1C (single isomer, unassigned) [Example 204, 2-((4-(5-(7,8-dimethyl-[1,2,4]triazolo[1,5-a]pyridin-6-yl)-6-isopropyl-4H-pyrrolo[3,2-d]thiazol-2-yl)cyclohexyl)amino)-N,N-dimethylacetamide]
8.02	4.37	9.35	Cc1c(-c2[nH]c3sc(N4CCN(CC(C)(C)O)CC4)nc3c2C(C)C)cn2ncnc2c1C [Example 281, 1-(4-(5-(7,8-dimethyl-[1,2,4]triazolo[1,5-a]pyridin-6-yl)-6-isopropyl-4H-pyrrolo[3,2-d]thiazol-2-yl)piperazin-1-yl)-2-methylpropan-2-ol]
8.08	4.70	9.01	Cc1c(-c2[nH]c3sc(N4CCN(C(C)C)C[C@@H]4C)nc3c2C(C)C)cn2ncnc2c1C [Example 351, (S)-5-(7,8-dimethyl-[1,2,4]triazolo[1,5-a]pyridin-6-yl)-6-isopropyl-2-(4-isopropyl-2-methylpiperazin-1-yl)-4H-pyrrolo[3,2-d]thiazole]
8.50	5.12	9.34	Cc1c(-c2[nH]c3sc(N4CCC(N(C)C(C)C)CC4)nc3c2C(C)C)cn2ncnc2c1C [Example 292, 1-(5-(7,8-dimethyl-[1,2,4]triazolo[1,5-a]pyridin-6-yl)-6-isopropyl-4H-pyrrolo[3,2-d]thiazol-2-yl)-N-isopropyl-N-methylpiperidin-4-amine]
8.63	5.01	8.63	Cc1c(-c2[nH]c3sc(C(=O)N(C)CCN(C)C)nc3c2C(C)C)cn2ncnc2c1C [Example 382, 5-(7,8-dimethyl-[1,2,4]triazolo[1,5-a]pyridin-6-yl)-N-(2-(dimethylamino)ethyl)-6-isopropyl-N-methyl-4H-pyrrolo[3,2-d]thiazole-2-carboxamide]
7.88	4.54	9.27	Cc1c(-c2[nH]c3sc(N4CCN(C5CCOCC5)CC4)nc3c2C(C)C)cn2ncnc2c1C [Example 287, 5-(7,8-dimethyl-[1,2,4]triazolo[1,5-a]pyridin-6-yl)-6-isopropyl-2-(4-(tetrahydro-2H-pyran-4-yl)piperazin-1-yl)-4H-pyrrolo[3,2-d]thiazole]

The next lines start with the compound.

SMILES	pIC50 (human TLR7)	pIC50 (human TLR9)	pIC50 (human TLR8)
CC(C)c1c(-c2cn(C)c3ncccc23)[nH]c2sc(C3CCC(NC45CC(C4)C5)CC3)nc12 (single isomer, unassigned) [Example 177, N-(4-(6-isopropyl-5-(1-methyl-1H-pyrrolo[2,3-b]pyridin-3-yl)-4H-pyrrolo[3,2-d]thiazol-2-yl)cyclohexyl)bicyclo[1.1.1]pentan-1-amine]	8.49	5.01	8.25
COc1cc(-c2[nH]c3sc(C4CCN(C(C)C)CC4)nc3c2C(C)C)cn2ncnc12 [Example 10, 6-isopropyl-2-(1-isopropylpiperidin-4-yl)-5-(8-methoxy-[1,2,4]triazolo[1,5-a]pyridin-6-yl)-4H-pyrrolo[3,2-d]thiazole]	8.86	5.88	8.72
COC1CN(C2CCC(c3nc4c(C(C)C)c(-c5cn6ncnc6cc5C)[nH]c4s3)CC2)C1 (single isomer, unassigned) [Example 151, 6-isopropyl-2-(4-(3-methoxyazetidin-1-yl)cyclohexyl)-5-(7-methyl-[1,2,4]triazolo[1,5-a]pyridin-6-yl)-4H-pyrrolo[3,2-d]thiazole]	7.31	4.63	7.22
COc1cc(-c2[nH]c3sc(C4CCC(NC5COC5)CC4)nc3c2C)cn2ncnc12 (single isomer, unassigned) [Example 273, N-(4-(5-(8-methoxy-[1,2,4]triazolo[1,5-a]pyridin-6-yl)-6-methyl-4H-pyrrolo[3,2-d]thiazol-2-yl)cyclohexyl)oxetan-3-amine]	7.86	5.26	7.58
COC1CN(C2CCC(c3nc4c(C(C)C)c(-c5cn6ncnc6c(C)c5C)[nH]c4s3)CC2)C1 (single isomer, unassigned) [Example 189, 5-(7,8-dimethyl-[1,2,4]triazolo[1,5-a]pyridin-6-yl)-6-isopropyl-2-(4-(3-methoxyazetidin-1-yl)cyclohexyl)-4H-pyrrolo[3,2-d]thiazole]	8.47	5.00	8.29
Cc1c(-c2[nH]c3sc(C4CCC(NCC5(S(C)(=O)=O)CC5)CC4)nc3c2C(C)C)cn(C)c(=O)c1C (single isomer, unassigned) [Example 257, 5-(6-isopropyl-2-(4-(((1-(methylsulfonyl)cyclopropyl)methyl)amino)cyclohexyl)-4H-pyrrolo[3,2-d]thiazol-5-yl)-1,3,4-trimethylpyridin-2(1H)-one]	7.87	4.46	9.07
